Assays:
anesthetized dogs = test: Hemodynamics in anesthetized dogs, iv; format: in vivo
Description: Solvent control group, Isosorbide Dinitrate control group (0.4 mg/kg/h) and administration groups of 3,4′,5-trihydroxy-stilbene-3-[…]-D-glucoside at low (2.5 mg/kg), middle (5 mg/kg) or high (10 mg/kg) doses were set up for the test. Isosorbide Dinitrate control group were medicated by continuous intravenous infusion and other groups by intravenous injection.
After anesthetized with pentobarbital sodium, the dog was immobilized on its back. A femoral artery was separated for insertion of a catheter to record blood pressure of artery. A cardiac catheter was guided inversely from right common carotid artery into its left ventricle. Both catheters were connected to pressure transmitters. After pressure signals were amplified with carriers, they were input into an electrophysiolograph Powerlab system 8s, (ML785/8S AD Instruments, Australia). Needle electrodes were punctured into four limbs to monitor standard 2-lead ECG. A computer (chart4.12, ML785/8S, AD Instruments, Australia) were applied for real-time monitoring and storage of data. After operation, there were 30 minutes for stableness and then basic indexes were recorded before administration. Negative control group were given by […] injection of solvent at 2 ml/kg, while positive control group were intravenously infused at 0.4 mg/kg/h. […]
Indexes of observation included heart rate (HR), systolic blood pressure (BPs), diastolic blood pressure, mean blood pressure, left ventricular systolic pressure (LVSP), left ventricular diastolic pressure (LVDP), the maximum change rate of left ventricular systolic pressure rise and fall (±dp/dtmax), left ventricular end diastolic pressure and ECG.
Significance of differences was checked.

platelet aggregation = details: 6~100 μmol/L TSG; cited from earlier work
Kunming mice = test: Acute toxicity test of mice, intravenous injection; details: single dose tail intravenous injection
Description: Drugs were medicated via intravenous injection at different concentration in same volume, which was 20 ml/kg.
40 healthy Kunming mice were selected and randomly divided into 4 groups. Drugs were injected via tail vein at one time and the doses were 300 mg/kg, 425 mg/kg, 600 mg/kg and 850 mg/kg, respectively. Mice were constantly observed for 4 hours after the injection. After that, observations were carried out once in the morning and once in the afternoon for 7 days continuously. Signs of intoxation and time of death were recorded.

[1] = TSG 2.5 mg/kg iv, Time c1-c5: 0,10,30,60,120 min, 10 min after dosing
[2] = TSG 2.5 mg/kg iv, Time c1-c5: 0,10,30,60,120 min, 30 min after dosing
[3] = TSG 2.5 mg/kg iv, Time c1-c5: 0,10,30,60,120 min, 60 min after dosing
[4] = TSG 2.5 mg/kg iv, Time c1-c5: 0,10,30,60,120 min, 120 min after dosing
[5] = TSG 2.5 mg/kg iv, Time c1-c5: 0,10,30,60,120 min, before dosing (0 min)
[6] = TSG 5 mg/kg iv, Time c1-c5: 0,15,30,60,120 min, 0 min, before dosing
[7] = TSG 5 mg/kg iv, Time c1-c5: 0,15,30,60,120 min, 15 min after dosing
[8] = TSG 5 mg/kg iv, Time c1-c5: 0,15,30,60,120 min, 30 min after dosing
[9] = TSG 5 mg/kg iv, Time c1-c5: 0,15,30,60,120 min, 60 min after dosing
[10] = TSG 5 mg/kg iv, Time c1-c5: 0,15,30,60,120 min, 120 min after dosing
[11] = TSG 10 mg/kg iv, Time c1-c5: 0,10,30,60,120 min, 0 min
[12] = TSG 10 mg/kg iv, Time c1-c5: 0,10,30,60,120 min, 10 min after dosing
[13] = TSG 10 mg/kg iv, Time c1-c5: 0,10,30,60,120 min, 30 min after dosing
[14] = TSG 10 mg/kg iv, Time c1-c5: 0,10,30,60,120 min, 60 min after dosing
[15] = TSG 10 mg/kg iv, Time c1-c5: 0,10,30,60,120 min, 120 min after dosing

For “3,4′,5-trihydroxy-stilbene-3-β-D-glucoside [TSG]”, the “+dp/dt max” value (anesthetized dogs; [1]) was 829.1 ± 308.3 Kpa/s, the BPd (anesthetized dogs; [1]) was 18.3 ± 2.3 KPa and the BPm (anesthetized dogs; [1]) was 20.7 ± 2.1 KPa. It also gave a BPs (anesthetized dogs; [1]) of 24.5 ± 2.0 KPa, an HR (anesthetized dogs; [1]) of 160.4 ± 18.4 p/min and an LVDP (anesthetized dogs; [1]) of 0.45 ± 2.40 KPa. For the same substance, the LVEDP (anesthetized dogs; [1]) was 1.00 ± 2.33 KPa, the LVSP (anesthetized dogs; [1]) was 25.2 ± 4.2 KPa and the “−dp/dt max” value (anesthetized dogs; [1]) was 777.3 ± 241.8 Kpa/s. The “+dp/dt max” value (anesthetized dogs; [2]) was 869.6 ± 235.9 Kpa/s, the BPd (anesthetized dogs; [2]) was 18.5 ± 2.2 KPa and the BPm (anesthetized dogs; [2]) was 20.8 ± 1.7 KPa. The BPs (anesthetized dogs; [2]) was 24.7 ± 1.3 KPa, the HR (anesthetized dogs; [2]) was 161.7 ± 18.0 p/min and the LVDP (anesthetized dogs; [2]) was 0.28 ± 2.40 KPa. The LVEDP (anesthetized dogs; [2]) was 1.11 ± 2.50 KPa, the LVSP (anesthetized dogs; [2]) was 25.7 ± 3.8 KPa and the “−dp/dt max” value (anesthetized dogs; [2]) was 873.9 ± 236.8 Kpa/s. The “+dp/dt max” value (anesthetized dogs; [3]) was 993.9 ± 206.2 Kpa/s, the BPd (anesthetized dogs; [3]) was 19.1 ± 2.5 KPa and the BPm (anesthetized dogs; [3]) was 21.6 ± 2.0 KPa. The BPs (anesthetized dogs; [3]) was 25.5 ± 1.6 KPa, the HR (anesthetized dogs; [3]) was 171.1 ± 18.8 p/min and the LVDP (anesthetized dogs; [3]) was 0.26 ± 2.35 KPa. The LVEDP (anesthetized dogs; [3]) was 0.78 ± 2.37 KPa, the LVSP (anesthetized dogs; [3]) was 26.5 ± 2.5 KPa and the “−dp/dt max” value (anesthetized dogs; [3]) was 905.9 ± 207.8 Kpa/s. The “+dp/dt max” value (anesthetized dogs; [4]) was 957.9 ± 190.0 Kpa/s, the BPd (anesthetized dogs; [4]) was 18.1 ± 1.8 KPa and the BPm (anesthetized dogs; [4]) was 20.2 ± 2.3 KPa. The BPs (anesthetized dogs; [4]) was 23.7 ± 3.3 KPa, the HR (anesthetized dogs; [4]) was 170.5 ± 16.1 p/min and the LVDP (anesthetized dogs; [4]) was 0.50 ± 2.06 KPa. For the same substance, the LVEDP (anesthetized dogs; [4]) was 1.09 ± 2.16 KPa, the LVSP (anesthetized dogs; [4]) was 26.7 ± 2.3 KPa and the “−dp/dt max” value (anesthetized dogs; [4]) was 852.5 ± 159.6 Kpa/s. The “+dp/dt max” value (anesthetized dogs; [5]) was 853.1 ± 321.1 Kpa/s, the BPd (anesthetized dogs; [5]) was 18.5 ± 1.7 KPa and the BPm (anesthetized dogs; [5]) was 21.1 ± 2.0 KPa. It also gave a BPs (anesthetized dogs; [5]) of 25.3 ± 3.0 KPa, an HR (anesthetized dogs; [5]) of 163.7 ± 21.1 p/min and an LVDP (anesthetized dogs; [5]) of 0.39 ± 2.20 KPa. The LVEDP (anesthetized dogs; [5]) was 1.14 ± 2.18 KPa, the LVSP (anesthetized dogs; [5]) was 24.9 ± 4.0 KPa and the “−dp/dt max” value (anesthetized dogs; [5]) was 772.0 ± 201.0 Kpa/s. The “+dp/dt max” value (anesthetized dogs; [6]) was 822.6 ± 353.8 Kpa/s, the BPd (anesthetized dogs; [6]) was 18.9 ± 4.2 KPa and the BPm (anesthetized dogs; [6]) was 21.1 ± 4.7 KPa. The BPs (anesthetized dogs; [6]) was 25.4 ± 6.4 KPa, the HR (anesthetized dogs; [6]) was 177.2 ± 35.5 p/min and the LVEDP (anesthetized dogs; [6]) was 1.05 ± 1.34 KPa. For the same substance, the LVSP (anesthetized dogs; [6]) was 24.1 ± 4.4 KPa, the “−dp/dt max” value (anesthetized dogs; [6]) was 866.2 ± 350.7 Kpa/s and the “+dp/dt max” value (anesthetized dogs; [7]) was 793.8 ± 299.0 Kpa/s. The BPd (anesthetized dogs; [7]) was 18.7 ± 4.4 KPa, the BPs (anesthetized dogs; [7]) was 25.4 ± 5.8 KPa and the HR (anesthetized dogs; [7]) was 171.0 ± 35.6 p/min. For the same substance, the LVEDP (anesthetized dogs; [7]) was 1.08 ± 1.62 KPa, the LVSP (anesthetized dogs; [7]) was 24.3 ± 4.6 KPa and the “−dp/dt max” value (anesthetized dogs; [7]) was 812.2 ± 308.9 Kpa/s. For the same substance, the “+dp/dt max” value (anesthetized dogs; [8]) was 855.5 ± 296.5 Kpa/s, the BPd (anesthetized dogs; [8]) was 19.2 ± 4.0 KPa and the BPm (anesthetized dogs; [8]) was 21.7 ± 4.2 KPa. For the same substance, the BPs (anesthetized dogs; [8]) was 26.1 ± 5.3 KPa, the HR (anesthetized dogs; [8]) was 170.0 ± 35.5 p/min and the LVEDP (anesthetized dogs; [8]) was 1.19 ± 1.76 KPa. For the same substance, the LVSP (anesthetized dogs; [8]) was 24.6 ± 4.6 KPa, the “−dp/dt max” value (anesthetized dogs; [8]) was 912.3 ± 318.8 Kpa/s and the “+dp/dt max” value (anesthetized dogs; [9]) was 936.1 ± 199.9 Kpa/s. For the same substance, the BPd (anesthetized dogs; [9]) was 19.8 ± 3.3 KPa, the BPm (anesthetized dogs; [9]) was 22.1 ± 3.3 KPa and the BPs (anesthetized dogs; [9]) was 26.6 ± 4.1 KPa. The HR (anesthetized dogs; [9]) was 178.0 ± 29.5 p/min, the LVEDP (anesthetized dogs; [9]) was 0.99 ± 1.19 KPa and the LVSP (anesthetized dogs; [9]) was 25.6 ± 3.0 KPa. For the same substance, the “−dp/dt max” value (anesthetized dogs; [9]) was 891.5 ± 261.8 Kpa/s, the “+dp/dt max” value (anesthetized dogs; [10]) was 921.4 ± 327.1 Kpa/s and the BPd (anesthetized dogs; [10]) was 18.8 ± 4.4 KPa. For the same substance, the BPm (anesthetized dogs; [10]) was 21.0 ± 4.4 KPa, the BPs (anesthetized dogs; [10]) was 25.0 ± 5.0 KPa and the HR (anesthetized dogs; [10]) was 170.2 ± 37.1 p/min. The LVEDP (anesthetized dogs; [10]) was 0.98 ± 1.42 KPa, the LVSP (anesthetized dogs; [10]) was 25.1 ± 5.2 KPa and the “−dp/dt max” value (anesthetized dogs; [10]) was 872.0 ± 291.7 Kpa/s. For the same substance, the “+dp/dt max” value (anesthetized dogs; [11]) was 1455.5 ± 637.7 Kpa/s, the BPd (anesthetized dogs; [11]) was 19.6 ± 3.7 KPa and the BPm (anesthetized dogs; [11]) was 22.5 ± 4.8 KPa. The BPs (anesthetized dogs; [11]) was 28.5 ± 7.5 KPa, the HR (anesthetized dogs; [11]) was 212.5 ± 31.3 p/min and the LVSP (anesthetized dogs; [11]) was 30.1 ± 5.9 KPa. For the same substance, the “−dp/dt max” value (anesthetized dogs; [11]) was 1164.1 ± 488.8 Kpa/s, the “+dp/dt max” value (anesthetized dogs; [12]) was 1646.2 ± 807.8 Kpa/s and the BPd (anesthetized dogs; [12]) was 21.0 ± 5.1 KPa. For the same substance, the BPm (anesthetized dogs; [12]) was 24.5 ± 5.9 KPa, the BPs (anesthetized dogs; [12]) was 32.4 ± 8.2 KPa and the HR (anesthetized dogs; [12]) was 209.7 ± 33.4 p/min. The LVSP (anesthetized dogs; [12]) was 32.4 ± 6.3 KPa, the “−dp/dt max” value (anesthetized dogs; [12]) was 1200.6 ± 447.6 Kpa/s and the “+dp/dt max” value (anesthetized dogs; [13]) was 1623.9 ± 729.5 Kpa/s. The BPd (anesthetized dogs; [13]) was 21.4 ± 5.5 KPa, the BPm (anesthetized dogs; [13]) was 25.1 ± 5.9 KPa and the BPs (anesthetized dogs; [13]) was 33.2 ± 8.5 KPa. For the same substance, the HR (anesthetized dogs; [13]) was 210.2 ± 33.8 p/min, the LVSP (anesthetized dogs; [13]) was 32.4 ± 6.8 KPa and the “−dp/dt max” value (anesthetized dogs; [13]) was 1120.4 ± 357.8 Kpa/s. For the same substance, the “+dp/dt max” value (anesthetized dogs; [14]) was 1518.5 ± 708.1 Kpa/s, the BPd (anesthetized dogs; [14]) was 20.6 ± 4.8 KPa and the BPm (anesthetized dogs; [14]) was 24.4 ± 5.1 KPa. The BPs (anesthetized dogs; [14]) was 33.6 ± 5.5 KPa, the HR (anesthetized dogs; [14]) was 207.1 ± 38.1 p/min and the LVSP (anesthetized dogs; [14]) was 31.7 ± 5.5 KPa. For the same substance, the “−dp/dt max” value (anesthetized dogs; [14]) was 1189.6 ± 461.6 Kpa/s, the “+dp/dt max” value (anesthetized dogs; [15]) was 1266.6 ± 334.8 Kpa/s and the BPd (anesthetized dogs; [15]) was 20.2 ± 3.0 KPa. For the same substance, the BPm (anesthetized dogs; [15]) was 22.7 ± 3.0 KPa, the BPs (anesthetized dogs; [15]) was 29.0 ± 4.8 KPa and the HR (anesthetized dogs; [15]) was 205.6 ± 50.2 p/min. The LVSP (anesthetized dogs; [15]) was 29.5 ± 2.7 KPa, the “−dp/dt max” value (anesthetized dogs; [15]) was 1068.5 ± 208.6 Kpa/s and the “platelet aggregation and production of thromboxane B2 induced by arachidonic acid, adenosine diphosphate and adrenalin” value (platelet aggregation) was “inhibited”. The signs of intoxication (Kunming mice) was “body shaking, occasionally restlessness, twitch and other responses appeared” and the “time of death after the drug injection” value (Kunming mice) was 5 to 1440 min.

Reference: US20080176810A1, “Use of 3, 4', 5-Trihydroxy-Stilbene-3-Beta-D-glucoside in Prepartion of Medicines For Treating and/or Preventing Ischemic Heart Disease” (SHENZHEN NEPTUNUS PHARMACEUTICAL CO., LTD., priority 2004, published 2008)
